Measured values from patent US9242993B2, “Morpholino substituted bicyclic pyrimidine urea or carbamate derivatives as mTOR inhibitors” (CELLZOME LIMITED, priority 2011, dated 2016).

How the values were obtained:
[1] = tested on: S6RP serine-240/244 phosphorylation; test: In vitro phospho-S6 cellular assay; type: cell-based; conditions: Homo sapiens; HEK293T/17 cells, 2 hours; read-out: pS6 inhibition value (IC50), activity level
From the text: Activation of mTOR signaling results in phosphorylation of several downstream targets. In cells, mTOR exists in two different protein complexes. The mTOR Complex-1 (mTORC1) phosphorylates and activates S6 Kinase 1 (S6K1) and S6 Kinase 2 (S6K2) (also known as p70S6K) which then phosphorylate S6 Ribosomal Protein (S6RP) (also known as RPS6)3. S6RP is phosphorylated on serine 235, serine 236, serine 240 and serine 244 by both pS6K1 and pS6K2. The mTOR Complex-2 (mTORC2) phosphorylates AKT on serine 473 which activates the AKT signaling pathway.
The assay measures a test compound's inhibition of S6RP serine-240/244 phosphorylation and inhibition of Akt serine-473 phosphorylation in human embryonic kidney derived HEK293T/17 cells (ATCC CRL-11268).
The HEK293T/17 cell line is maintained in DMEM media (Invitrogen catalogue number 41965-039) supplemented with 10% FCS at 37° C. in a 5% CO2 humidified incubator.
Cells are seeded in 96-well plates at 40,000 cells/well (pS6RP S240/244 assay) or 80,000 cells/well (pAkt S473 assay) in 90 μl growth media (DMEM, 2% FCS). Plates are incubated for 1 hour in a humidified incubator to allow the cells to adhere. Cells are treated with 8 concentrations of test compounds or DMSO alone for controls (final DMSO concentration 0.1%) and incubated at 37° C. for 2 hours. Then 20 μl of 5× concentrated lysis buffer (750 mM NaCl, 100 mM Tris pH7.4, 5 mM ADTA, 5 mM EGTA, 5% Triton X-100) is added, plates are sealed and incubated for 15 minutes at 4° C. with gentle shaking. After cell lysis, 25 μl cell lysate is transferred to a MesoScale plate coated with an antibody to pS6RP Ser240/244 (MesoScale Discovery K150DGD-3) or an antibody to pAkt Ser 473 (MesoScale Discovery K151DGD-3). Plates have been blocked before by incubation with 150 μl MesoScale Discovery Blocking Solution-A for 1 hour at room temperature followed by washing with 150 μl 1× Tris wash buffer per well. After the transfer of the cell lysate to the MSD plate, the pS6RP (or pAkt) protein is captured on the coated antibody by incubation at room temperature for 1 hour with gentle shaking. After the capture step the plate is washed three times with 150 μl of 1× Tris wash buffer per well. Then 25 μl detection antibody conjugated with a Sulfo-Tag is added and incubated for 1 hour at room temperature with gentle shaking. Subsequently the antibody solution is removed and the plate is washed 3 times with 150 μl 1× Tris wash buffer per well and 150 μl Read buffer is added. The plates are analysed on a MSD 2400 Plate Reader (MesoScale Discovery). Data analysis is performed using nonlinear regression for a sigmoidal dose-response with a variable slope.

mTOR = mTOR (Homo sapiens, UniProt P42345); test: biochemical
[2] = target: DNA-dependent protein kinase (DNA-PK) (Homo sapiens, UniProt P78527); test: biochemical
DNA-dependent protein kinase (DNA-PK), sequence (P78527 whole entry): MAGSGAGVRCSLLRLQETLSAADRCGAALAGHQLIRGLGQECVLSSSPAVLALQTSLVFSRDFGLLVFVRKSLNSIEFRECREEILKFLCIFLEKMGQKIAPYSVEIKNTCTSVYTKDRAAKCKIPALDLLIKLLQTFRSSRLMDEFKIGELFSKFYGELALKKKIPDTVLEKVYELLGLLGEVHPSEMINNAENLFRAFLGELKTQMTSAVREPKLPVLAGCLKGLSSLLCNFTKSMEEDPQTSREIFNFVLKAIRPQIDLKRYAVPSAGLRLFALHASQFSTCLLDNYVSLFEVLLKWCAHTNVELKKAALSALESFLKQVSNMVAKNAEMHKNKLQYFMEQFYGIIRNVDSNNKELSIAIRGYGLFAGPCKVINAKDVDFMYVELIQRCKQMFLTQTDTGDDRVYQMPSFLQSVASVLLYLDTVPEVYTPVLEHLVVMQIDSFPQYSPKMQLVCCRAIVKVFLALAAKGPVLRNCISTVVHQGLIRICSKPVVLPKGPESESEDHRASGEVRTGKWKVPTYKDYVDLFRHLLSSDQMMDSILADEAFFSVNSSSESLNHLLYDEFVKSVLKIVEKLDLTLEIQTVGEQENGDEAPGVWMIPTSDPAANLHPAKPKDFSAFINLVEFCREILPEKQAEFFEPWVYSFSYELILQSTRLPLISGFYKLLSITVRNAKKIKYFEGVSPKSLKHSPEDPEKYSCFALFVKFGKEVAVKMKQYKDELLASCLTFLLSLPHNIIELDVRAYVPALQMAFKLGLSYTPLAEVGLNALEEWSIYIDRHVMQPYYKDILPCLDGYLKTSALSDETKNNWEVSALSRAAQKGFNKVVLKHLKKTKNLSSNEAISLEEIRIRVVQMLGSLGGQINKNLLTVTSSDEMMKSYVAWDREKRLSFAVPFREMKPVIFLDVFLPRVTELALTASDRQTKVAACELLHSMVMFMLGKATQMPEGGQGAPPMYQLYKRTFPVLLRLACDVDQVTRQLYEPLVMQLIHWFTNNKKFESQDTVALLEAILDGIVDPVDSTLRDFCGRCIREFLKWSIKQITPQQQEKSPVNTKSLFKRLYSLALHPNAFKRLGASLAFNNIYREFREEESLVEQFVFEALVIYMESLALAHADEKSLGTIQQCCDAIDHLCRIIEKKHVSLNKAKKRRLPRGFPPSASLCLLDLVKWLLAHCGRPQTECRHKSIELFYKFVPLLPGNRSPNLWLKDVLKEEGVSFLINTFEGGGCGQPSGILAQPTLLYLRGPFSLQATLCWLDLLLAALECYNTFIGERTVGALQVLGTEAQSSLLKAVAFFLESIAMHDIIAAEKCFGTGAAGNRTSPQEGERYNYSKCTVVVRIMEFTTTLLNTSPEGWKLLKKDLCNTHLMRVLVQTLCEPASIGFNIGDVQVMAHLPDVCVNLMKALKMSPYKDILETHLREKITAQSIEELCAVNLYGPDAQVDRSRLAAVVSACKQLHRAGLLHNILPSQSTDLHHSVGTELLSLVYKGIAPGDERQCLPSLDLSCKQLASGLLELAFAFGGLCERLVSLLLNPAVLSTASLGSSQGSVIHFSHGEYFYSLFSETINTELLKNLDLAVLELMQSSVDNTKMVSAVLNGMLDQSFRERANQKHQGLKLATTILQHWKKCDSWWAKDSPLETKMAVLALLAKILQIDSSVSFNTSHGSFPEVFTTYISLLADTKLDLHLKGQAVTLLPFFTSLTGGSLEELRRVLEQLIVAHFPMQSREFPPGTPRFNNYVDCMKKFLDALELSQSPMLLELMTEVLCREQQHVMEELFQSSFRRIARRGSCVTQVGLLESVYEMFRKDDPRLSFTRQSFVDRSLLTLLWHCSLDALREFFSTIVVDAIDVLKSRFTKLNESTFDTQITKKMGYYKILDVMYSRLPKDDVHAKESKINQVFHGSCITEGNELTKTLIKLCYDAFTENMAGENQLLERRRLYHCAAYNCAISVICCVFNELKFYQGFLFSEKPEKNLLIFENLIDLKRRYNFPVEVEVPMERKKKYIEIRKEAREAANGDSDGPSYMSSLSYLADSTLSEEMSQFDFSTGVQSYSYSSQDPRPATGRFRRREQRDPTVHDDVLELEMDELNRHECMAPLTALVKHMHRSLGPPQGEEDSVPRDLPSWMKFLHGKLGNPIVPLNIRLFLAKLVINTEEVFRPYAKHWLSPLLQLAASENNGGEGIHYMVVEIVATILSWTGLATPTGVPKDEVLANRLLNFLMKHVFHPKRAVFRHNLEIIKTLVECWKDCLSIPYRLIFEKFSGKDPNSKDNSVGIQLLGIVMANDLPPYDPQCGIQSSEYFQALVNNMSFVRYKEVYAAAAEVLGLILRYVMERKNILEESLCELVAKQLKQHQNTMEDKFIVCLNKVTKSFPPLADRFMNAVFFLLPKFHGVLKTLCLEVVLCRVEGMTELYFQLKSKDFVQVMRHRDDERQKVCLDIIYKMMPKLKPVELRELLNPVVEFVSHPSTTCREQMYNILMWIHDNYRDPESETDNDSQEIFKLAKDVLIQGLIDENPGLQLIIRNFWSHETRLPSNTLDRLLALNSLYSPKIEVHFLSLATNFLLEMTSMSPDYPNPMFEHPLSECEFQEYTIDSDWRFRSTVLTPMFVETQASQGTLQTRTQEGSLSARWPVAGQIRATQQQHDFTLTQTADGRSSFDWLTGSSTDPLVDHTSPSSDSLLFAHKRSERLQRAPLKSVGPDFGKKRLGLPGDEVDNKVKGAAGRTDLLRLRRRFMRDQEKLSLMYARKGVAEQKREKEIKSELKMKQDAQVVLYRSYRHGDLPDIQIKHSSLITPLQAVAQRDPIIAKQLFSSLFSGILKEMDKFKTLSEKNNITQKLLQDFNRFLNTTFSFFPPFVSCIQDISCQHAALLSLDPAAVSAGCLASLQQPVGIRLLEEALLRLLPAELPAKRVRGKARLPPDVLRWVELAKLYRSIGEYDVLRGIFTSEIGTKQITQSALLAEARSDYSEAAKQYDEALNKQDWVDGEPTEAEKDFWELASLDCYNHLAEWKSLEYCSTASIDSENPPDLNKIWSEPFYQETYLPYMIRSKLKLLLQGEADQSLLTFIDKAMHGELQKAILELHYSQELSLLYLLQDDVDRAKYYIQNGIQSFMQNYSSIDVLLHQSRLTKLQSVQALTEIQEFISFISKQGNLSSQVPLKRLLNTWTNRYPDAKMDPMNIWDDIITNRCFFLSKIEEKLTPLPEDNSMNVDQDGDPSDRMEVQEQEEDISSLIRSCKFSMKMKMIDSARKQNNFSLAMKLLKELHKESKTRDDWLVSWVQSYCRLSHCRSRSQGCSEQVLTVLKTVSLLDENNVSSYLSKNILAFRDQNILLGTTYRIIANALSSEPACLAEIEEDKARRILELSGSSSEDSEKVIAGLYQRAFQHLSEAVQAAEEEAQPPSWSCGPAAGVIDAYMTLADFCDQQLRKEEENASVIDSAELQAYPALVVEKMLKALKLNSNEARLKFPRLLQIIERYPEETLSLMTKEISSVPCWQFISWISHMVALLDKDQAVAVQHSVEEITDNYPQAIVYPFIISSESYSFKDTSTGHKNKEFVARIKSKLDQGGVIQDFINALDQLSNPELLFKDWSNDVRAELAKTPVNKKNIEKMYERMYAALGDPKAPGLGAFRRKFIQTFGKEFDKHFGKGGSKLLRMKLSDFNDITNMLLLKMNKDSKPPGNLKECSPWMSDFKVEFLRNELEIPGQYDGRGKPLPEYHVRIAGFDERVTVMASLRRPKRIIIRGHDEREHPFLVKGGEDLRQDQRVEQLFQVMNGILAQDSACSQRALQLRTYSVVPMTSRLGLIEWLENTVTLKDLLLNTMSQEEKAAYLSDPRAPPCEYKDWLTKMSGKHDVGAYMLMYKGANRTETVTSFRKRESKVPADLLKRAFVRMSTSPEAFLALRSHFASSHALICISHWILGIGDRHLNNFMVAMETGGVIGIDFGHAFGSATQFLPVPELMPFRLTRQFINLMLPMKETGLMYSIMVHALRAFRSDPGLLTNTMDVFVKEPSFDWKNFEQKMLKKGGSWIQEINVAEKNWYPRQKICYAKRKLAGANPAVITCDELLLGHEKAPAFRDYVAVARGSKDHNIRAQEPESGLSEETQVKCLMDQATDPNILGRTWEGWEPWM

In the case of CC1c2c(nc(-c3ccc(NC(=O)NC4CC4)cc3)nc2N2CCOC[C@@H]2C)CS1(=O)=O (mixture of isomers) [Example 6, 1-cyclopropyl-3-(4-(5-methyl-4-((S)-3-methylmorpholino)-6,6-dioxido-5,7-dihydrothieno[3,4-d]pyrimidin-2-yl)phenyl)urea], the IC50 [1] is reported as under 100 nM and the IC50 (mTOR) is reported as under 100 nM.
Work on C[C@H]1COCCN1c1nc(-c2ccc(NC(=O)NC3CC3)cc2)nc2c1CSCC2 [Example 3, (S)-1-cyclopropyl-3-(4-(4-(3-methylmorpholino)-7,8-dihydro-5H-thiopyrano[4,3-d]pyrimidin-2-yl)phenyl)urea] yielded an IC50 [1] of under 100 nM and an IC50 (mTOR) of under 100 nM.
In the case of C[C@H]1COCCN1c1nc(-c2ccc(NC(=O)NC3CC3)cc2)nc2c1CS(=O)(=O)CC2 [Example 4, (S)-1-cyclopropyl-3-(4-(4-(3-methylmorpholino)-6,6-dioxido-7,8-dihydro-5H-thiopyrano[4,3-d]pyrimidin-2-yl)phenyl)urea], the IC50 [1] is reported as 100 to 1000 nM, the IC50 (mTOR) is reported as under 100 nM and the IC50 [2] is reported as over 10000 nM.
Work on CC1c2nc(-c3ccc(NC(=O)NC4CC4)cc3)nc(N3CCOC[C@@H]3C)c2CS1(=O)=O (stereo partly drawn) [Example 7, 1-cyclopropyl-3-(4-(7-methyl-4-((S)-3-methylmorpholino)-6,6-dioxido-5,7-dihydrothieno[3,4-d]pyrimidin-2-yl)phenyl)urea] yielded an IC50 [1] of under 100 nM and an IC50 (mTOR) of under 100 nM.
C[C@H]1COCCN1c1nc(-c2ccc(NC(=O)NC3CC3)cc2)nc2c1SCCC2 [Example 8, (S)-1-cyclopropyl-3-(4-(4-(3-methylmorpholino)-7,8-dihydro-6H-thiopyrano[3,2-d]pyrimidin-2-yl)phenyl)urea] showed an IC50 [1] of under 100 nM, an IC50 (mTOR) of under 100 nM and an IC50 [2] of over 10000 nM.
CCNC(=O)Nc1ccc(-c2nc3c(c(N4CCOC[C@@H]4C)n2)CS(=O)(=O)C3)cc1 [Example 11, (S)-1-ethyl-3-(4-(4-(3-methylmorpholino)-6,6-dioxido-5,7-dihydrothieno[3,4-d]pyrimidin-2-yl)phenyl)urea] showed an IC50 [1] of under 100 nM and an IC50 [2] of over 10000 nM.
CNC(=O)Nc1ccc(-c2nc3c(c(N4CCOC[C@@H]4C)n2)CS(=O)(=O)C3)cc1 [Example 12, (S)-1-methyl-3-(4-(4-(3-methylmorpholino)-6,6-dioxido-5,7-dihydrothieno[3,4-d]pyrimidin-2-yl)phenyl)urea] gave an IC50 [1] of 100 to 1000 nM, an IC50 (mTOR) of under 100 nM and an IC50 [2] of over 10000 nM.
In the case of C[C@@H]1COCCN1c1nc(-c2ccc(NC(=O)NC3CC3)cc2)nc2c1CS(=O)(=O)C2 [Example 17, (R)-1-cyclopropyl-3-(4-(4-(3-methylmorpholino)-6,6-dioxido-5,7-dihydrothieno[3,4-d]pyrimidin-2-yl)phenyl)urea], the IC50 [1] is reported as under 100 nM and the IC50 (mTOR) is reported as 100 to 1000 nM.
Compound C[C@@H]1CN(c2nc(-c3ccc(NC(=O)NC4CC4)cc3)nc3c2CS(=O)(=O)C3)C[C@H](C)O1 [Example 19, 1-cyclopropyl-3-(4-(4-((2S,6R)-2,6-dimethylmorpholino)-6,6-dioxido-5,7-dihydrothieno[3,4-d]pyrimidin-2-yl)phenyl)urea] has an IC50 (mTOR) of 1000 to 10000 nM.
With O=C(Nc1ccc(-c2nc3c(c(N4CC5CCC(C4)O5)n2)CS(=O)(=O)C3)cc1)NC1CC1 [Example 20, 1-(4-(4-(8-oxa-3-azabicyclo[3.2.1]octan-3-yl)-6,6-dioxido-5,7-dihydrothieno[3,4-d]pyrimidin-2-yl)phenyl)-3-cyclopropylurea] the IC50 [1] was 100 to 1000 nM and the IC50 (mTOR) was under 100 nM.
Compound CNC(=O)Nc1ccc(-c2nc3c(c(N4CC5CCC(C4)O5)n2)CS(=O)(=O)C3)cc1 [Example 21, 1-(4-(4-(8-oxa-3-azabicyclo[3.2.1]octan-3-yl)-6,6-dioxido-5,7-dihydrothieno[3,4-d]pyrimidin-2-yl)phenyl)-3-methylurea] has an IC50 [1] of 100 to 1000 nM and an IC50 (mTOR) of under 100 nM.
Compound C[C@H]1COCCN1c1nc(-c2ccc(NC(=O)NCC(F)F)cc2)nc2c1CS(=O)(=O)C2 [Example 23, (S)-1-(2,2-difluoroethyl)-3-(4-(4-(3-methylmorpholino)-6,6-dioxido-5,7-dihydrothieno[3,4-d]pyrimidin-2-yl)phenyl)urea] has an IC50 [1] of 100 to 1000 nM and an IC50 (mTOR) of under 100 nM.
With O=C(NCC(F)F)Nc1ccc(-c2nc3c(c(N4CC5CCC(C4)O5)n2)CS(=O)(=O)C3)cc1 [Example 24, 1-(4-(4-(8-oxa-3-azabicyclo[3.2.1]octan-3-yl)-6,6-dioxido-5,7-dihydrothieno[3,4-d]pyrimidin-2-yl)phenyl)-3-(2,2-difluoroethyl)urea] the IC50 [1] was under 100 nM and the IC50 (mTOR) was 100 to 1000 nM.
Work on CC(C)NC(=O)Nc1ccc(-c2nc3c(c(N4CCOC[C@@H]4C)n2)CS(=O)(=O)C3)cc1 [Example 25, (S)-1-isopropyl-3-(4-(4-(3-methylmorpholino)-6,6-dioxido-5,7-dihydrothieno[3,4-d]pyrimidin-2-yl)phenyl)urea] yielded an IC50 [1] of 100 to 1000 nM and an IC50 (mTOR) of 100 to 1000 nM.
C[C@H]1COCCN1c1nc(-c2ccc(NC(=O)NC3CC3)cc2)nc2c1CS(=O)(=O)C2(C)C [Example 30, (S)-1-cyclopropyl-3-(4-(7,7-dimethyl-4-(3-methylmorpholino)-6,6-dioxido-5,7-dihydrothieno[3,4-d]pyrimidin-2-yl)phenyl)urea] gave an IC50 [1] of under 100 nM and an IC50 (mTOR) of under 100 nM.
With CC1c2c(nc(-c3ccc(NC(=O)NC4CC4)cc3)nc2N2C3CCC2COC3)CS1(=O)=O (stereo not drawn) [Example 33, 1-(4-(4-(3-oxa-8-azabicyclo[3.2.1]octan-8-yl)-5-methyl-6,6-dioxido-5,7-dihydrothieno[3,4-d]pyrimidin-2-yl)phenyl)-3-cyclopropylurea] the IC50 [1] was under 100 nM and the IC50 (mTOR) was under 100 nM.
Work on CC1c2c(nc(-c3ccc(NC(=O)NC4CC4)cc3)nc2N2CC3CCC(C2)O3)CS1(=O)=O (stereo not drawn) [Example 34, 1-(4-(4-(8-oxa-3-azabicyclo[3.2.1]octan-3-yl)-5-methyl-6,6-dioxido-5,7-dihydrothieno[3,4-d]pyrimidin-2-yl)phenyl)-3-cyclopropylurea] yielded an IC50 [1] of under 100 nM and an IC50 (mTOR) of under 100 nM.
Compound C[C@H]1COCCN1c1nc(-c2ccc(NC(=O)Nc3cccnc3)cc2)nc2c1CS(=O)(=O)C2 [Example 36, (S)-1-(4-(4-(3-methylmorpholino)-6,6-dioxido-5,7-dihydrothieno[3,4-d]pyrimidin-2-yl)phenyl)-3-(pyridin-3-yl)urea] has an IC50 (mTOR) of under 100 nM and an IC50 [2] of over 10000 nM.
C[C@H]1COCCN1c1nc(-c2ccc(NC(=O)NC3CC3)cc2)nc2c1S(=O)(=O)C(C)(C)C2 [Example 37, (S)-1-cyclopropyl-3-(4-(6,6-dimethyl-4-(3-methylmorpholino)-5,5-dioxido-6,7-dihydrothieno[3,2-d]pyrimidin-2-yl)phenyl)urea] showed an IC50 (mTOR) of 100 to 1000 nM and an IC50 [2] of over 10000 nM.
CC1c2c(N3CCOCC3)nc(-c3ccc(NC(=O)NCCF)cc3)nc2C(C)(C)S1(=O)=O (stereo not drawn) [Example 81, 1-(2-fluoroethyl)-3-(4-(5,7,7-trimethyl-4-morpholino-6,6-dioxido-5,7-dihydrothieno[3,4-d]pyrimidin-2-yl)phenyl)urea] showed an IC50 (mTOR) of under 100 nM.
Compound C[C@@H]1c2c(N3CCOC[C@@H]3C)nc(-c3ccc(NC(=O)NC4CC4)cc3)nc2C(C)(C)S1(=O)=O [Example 82, 1-cyclopropyl-3-(4-((R)-5,7,7-trimethyl-4-((S)-3-methylmorpholino)-6,6-dioxido-5,7-dihydrothieno[3,4-d]pyrimidin-2-yl)phenyl)urea] has an IC50 (mTOR) of under 100 nM.
